Test results reported in US11970713B2, “Method for long-term ex vivo maintenance or expansion of human erythroblast, human megakaryocyte-erythroid progenitor, or human common myeloid progenitor cell and application thereof” (OCGENE THERAPEUTICS CORPORATION, priority 2020, dated 2024).
“Also recorded” adds a separate entry of the source.

System: human umbilical cord blood mononuclear cells
Experiment: Cell expansion in E6 medium with different tankyrase inhibitors, removal of SB590885 or CHIR99021, or different XAV939 concentrations (Example 6)
Type: cell-based
Details: XAV939 between 0.2 μM and 2 μM in E6 + 3i
Experimental: 2×10^6 of human umbilical cord blood mononuclear cells were cultured in E6 medium supplemented with 3i composition (the same as that in EXAMPLE 1) as a control group; and 2×10^6 of human umbilical cord blood mononuclear cells were cultured in E6 medium supplemented with 3i+X composition (the same as that in EXAMPLE 1) as experimental groups, wherein X presented the tankyrase inhibitor, and different tankyrase inhibitors were selected from JW55, RK-287107, WIKI4, XAV939 or TC-E5001 in different experimental groups.
Additionally, the inventors investigated effect of removal of SB590885, removal of CHIR99021, or experience of different concentrations of XAV939 on cell expansion. The cell counting results were shown in Tables 2, 3, and 4, respectively.

Oc1nc(-c2ccc(C(F)(F)F)cc2)nc2c1CSCC2 [XAV939] was tested, and the “Effect of XAV939 concentration on expanded cell numbers” value was “about the same; also recorded: can promote cell expansion”.
